These results are taken from EPA's ToxValDB 9.5 (doi:10.2903/j.efsa.2017.4903).

One data set has as its system Rattus norvegicus. To be noted: for LOAEL: subchronic, duration: 90 days, clinical chemistry; for NOAEL: reproduction developmental.
For a further data set, the system named is Hypoaspis aculeifer. Conditions: chronic/long-term; duration: 14 days; reproduction.
The next data set relates to Folsomia candida. Conditions: chronic/long-term; duration: 28 days; mortality.
In another data set the test system is Pontoscolex corethrurus. Conditions: chronic/long-term.
The next data set has as its system Pleurozium sp. To be noted: acute; duration: 72 hours; other.
Another data set relates to Apis mellifera. Conditions: acute, mortality.
Another data set relates to Danio rerio. To be noted: chronic; reproduction.
The next data set concerns Colinus virginianus. Conditions: reproduction developmental.
The subject of another data set is Coturnix japonica. To be noted: acute; oral; mortality.

For `Nc1ccc(O)c(Cl)c1` [3-Chloro-4-hydroxyaniline], the LOAEL (in general, the lowest tested level that showed an adverse finding) in the data set on Rattus norvegicus came out at 10 mg/kg-day.

Turning to `Nc1cccc(Cl)c1` [3-Chloroaniline], the NOEC stood at 50 mg/kg in the data set on Hypoaspis aculeifer, 9.5 mg/kg in the data set with Folsomia candida, 125 mg/kg with Pontoscolex corethrurus (reproduction) and 1 mg/L in the data set with Pleurozium sp.. The LOAEL with Rattus norvegicus worked out at 10 mg/kg-day.

As to `CC(C)OC(=O)Nc1cccc(Cl)c1` [Chlorpropham], the NOAEL (in general, the highest dose or exposure tested at which no adverse effect was seen) with Canidae (acute, oral, Beagle, mobility) turned out to be 50 mg/kg-day; with Canidae (chronic, duration: 60 weeks, oral, diet, Beagle, organ weight), 5 mg/kg-day; with Canidae (short-term, duration: 28 days, Dog Other), 5 mg/kg-day; in the data set on Rattus norvegicus (body weight) it was 50 mg/kg-day; in the data set with Rattus norvegicus (immunology), 44.5 mg/kg-day; with Colinus virginianus, 94.7 mg/kg-day. Besides, the LD50 in the data set with Apis mellifera (dermal) was 96.1 µg/piece; in the data set with Apis mellifera (oral, unspecified) it was 505 µg/piece; in the data set on Rattus norvegicus (acute, oral, mortality), 4200 mg/kg-day; in the data set on Coturnix japonica it was more than 2000 mg/kg-day. For the same compound, the NOEC was 17.2 mg/kg in the data set on Folsomia candida, 30 mg/kg with Pontoscolex corethrurus (growth) and 0.32 mg/L with Danio rerio.
